Results published in ChEMBL document CHEMBL1146150, “Synthesis and antibacterial activity of novel neamine derivatives” (2006).
In brackets after ≈: the same amount, converted by molar mass.

How the values were obtained:
Format in all cases: functional
[1] = test system: Staphylococcus aureus; assay: Antibacterial activity against Staphylococcus aureus RN4220 by twofold agar dilution method
[2] = test system: Staphylococcus aureus; assay: Antibacterial activity against Staphylococcus aureus RN4220/pMS520 expressing AAD(4')-I enzyme by twofold agar dilution method
[3] = test system: Staphylococcus aureus; assay: Antibacterial activity against Staphylococcus aureus RN4220/pCR1948 expressing AAC(6')-APH(2'') enzyme by twofold agar dilution method
[4] = test system: Staphylococcus aureus; assay: Antibacterial activity against gentamycin and arbekacin-resistant Staphylococcus aureus RN4220/pMF490 expressing AAC(6')-APH(2'') enzyme by twofold agar dilution method
[5] = test system: Staphylococcus aureus; assay: Antibacterial activity against gentamycin and arbekacin-resistant Staphylococcus aureus MF490 expressing AAD(4'), AAC(6')-APH(2'') enzymes by twofold agar dilution method
[6] = test system: Escherichia coli; assay: Antibacterial activity against Escherichia coli NIH JC2 by twofold agar dilution method
[7] = test system: Pseudomonas aeruginosa; assay: Antibacterial activity against Pseudomonas aeruginosa PAO1 by twofold agar dilution method
[8] = test system: Pseudomonas aeruginosa; assay: Antibacterial activity against Pseudomonas aeruginosa GN4925 expressing AAC(6')-Ib by twofold agar dilution method
[9] = test system: Pseudomonas aeruginosa; assay: Antibacterial activity against Pseudomonas aeruginosa GN3054 expressing AAC(3)-I by twofold agar dilution method

Row | Compound | MIC [1] [µg/mL] | MIC [2] [µg/mL] | MIC [3] [µg/mL] | MIC [4] [µg/mL] | MIC [5] [µg/mL] | MIC [6] [µg/mL] | MIC [7] [µg/mL] | MIC [8] [µg/mL] | MIC [9] [µg/mL]
1 | NCCNC(=O)O[C@@H]1[C@@H](O)[C@H](NC(=O)[C@@H](O)CCN)C[C@H](N)[C@H]1O[C@H]1O[C@H](CN)CC[C@H]1N | 2 (≈ 4.19 µM) | 2 (≈ 4.19 µM) | 2 (≈ 4.19 µM) | 2 (≈ 4.19 µM) | 8 (≈ 16.8 µM) | 8 (≈ 16.8 µM) | 8 (≈ 16.8 µM) | 8 (≈ 16.8 µM) | 16 (≈ 33.5 µM)
2 | NCCCNC(=O)O[C@@H]1[C@@H](O)[C@H](NC(=O)[C@@H](O)CCN)C[C@H](N)[C@H]1O[C@H]1O[C@H](CN)CC[C@H]1N | 16 (≈ 32.5 µM) | 16 (≈ 32.5 µM) | 16 (≈ 32.5 µM) | 32 (≈ 65.1 µM) | 128 (≈ 260 µM) | 32 (≈ 65.1 µM) | 32 (≈ 65.1 µM) | 128 (≈ 260 µM) | 64 (≈ 130 µM)
3 | CN[C@@H]1[C@@H](O)[C@@H](O[C@@H]2[C@@H](O)[C@H](O[C@H]3O[C@H](C(C)N)CC[C@H]3N)[C@@H](N)C[C@H]2N)OC[C@]1(C)O (stereo not given in full) [GENTAMICIN C2] | 0.25 (≈ 0.539 µM) | 0.25 (≈ 0.539 µM) | 64 (≈ 138 µM) | > 128 | > 128 | 0.5 (≈ 1.08 µM) | 4 (≈ 8.63 µM) | 128 (≈ 276 µM) | 128 (≈ 276 µM)
4 | CN[C@@H]1[C@@H](O)[C@@H](O[C@@H]2[C@@H](O)[C@H](O[C@H]3O[C@H]([C@@H](C)NC)CC[C@H]3N)[C@@H](N)C[C@H]2N)OC[C@]1(C)O [GENTAMICIN C1] | 0.25 (≈ 0.523 µM) | 0.25 (≈ 0.523 µM) | 64 (≈ 134 µM) | > 128 | > 128 | 0.5 (≈ 1.05 µM) | 4 (≈ 8.38 µM) | 128 (≈ 268 µM) | 128 (≈ 268 µM)
5 | NCCCNC(=O)O[C@@H]1[C@@H](O)[C@H](O[C@H]2O[C@H](CN)CC[C@H]2N)[C@@H](N)C[C@H]1NC(=O)[C@@H](O)CCN | 16 (≈ 32.5 µM) | 16 (≈ 32.5 µM) | 16 (≈ 32.5 µM) | 16 (≈ 32.5 µM) | 64 (≈ 130 µM) | 64 (≈ 130 µM) | 32 (≈ 65.1 µM) | 128 (≈ 260 µM) | 128 (≈ 260 µM)
6 | NCC[C@H](O)C(=O)N[C@@H]1C[C@H](N)[C@@H](O[C@H]2O[C@H](CN)CC[C@H]2N)[C@H](O)[C@H]1O[C@H]1O[C@H](CO)[C@@H](O)[C@H](N)[C@H]1O [ARBEKACIN] | 0.5 (≈ 0.905 µM) | 0.5 (≈ 0.905 µM) | 1 (≈ 1.81 µM) | 8 (≈ 14.5 µM) | 64 (≈ 116 µM) | 1 (≈ 1.81 µM) | 4 (≈ 7.24 µM) | 4 (≈ 7.24 µM) | 8 (≈ 14.5 µM)
7 | NCC[C@H](O)C(=O)N[C@@H]1C[C@H](N)[C@@H](O[C@H]2O[C@H](CN)CC[C@H]2N)[C@H](O)[C@H]1O | 4 (≈ 10.2 µM) | 4 (≈ 10.2 µM) | 2 (≈ 5.11 µM) | 4 (≈ 10.2 µM) | 8 (≈ 20.4 µM) | 8 (≈ 20.4 µM) | 8 (≈ 20.4 µM) | 64 (≈ 163 µM) | 16 (≈ 40.9 µM)
8 | NC[C@@H]1CC[C@@H](N)[C@@H](O[C@H]2[C@H](O)[C@@H](O)[C@H](N)C[C@@H]2N)O1 [GENTAMINE C1A] | 16 (≈ 55.1 µM) | 16 (≈ 55.1 µM) | > 128 |  | > 128 | 32 (≈ 110 µM) | 32 (≈ 110 µM) | > 128 | 64 (≈ 220 µM)
9 | NCCNC(=O)O[C@@H]1[C@@H](O)[C@H](O[C@H]2O[C@H](CN)CC[C@H]2N)[C@@H](N)C[C@H]1NC(=O)[C@@H](O)CCN | 8 (≈ 16.8 µM) | 8 (≈ 16.8 µM) | 8 (≈ 16.8 µM) | 16 (≈ 33.5 µM) | 32 (≈ 67 µM) | 32 (≈ 67 µM) | > 32 | > 32 | > 32
